Data reported in ChEMBL document CHEMBL1201862, “PubChem BioAssay data set” (2004).
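Five compound concentrations were applied to cells in 96-well plates for 48 hours; endpoints were derived by simple linear interpolation of the resulting dose-response curve. The concentration for 50% growth inhibition is given as GI50.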 Active and inactive are the calls of the source. Cut-off read from the data, not from the text of the source: active = GI50 up to about 1.1 µM and inactive = higher.

Columns and labels:
Assay in all cases: NCI-60 cell line screen, 48 h
786-0 = test system: 786-0
A498 = test system: A498
A549 = test system: A549
ACHN = test system: ACHN
DLD-1 = test system: DLD-1
HT-29 = test system: HT-29
M14 = test system: M14
Malme-3M = test system: Malme-3M
OVCAR-5 = test system: OVCAR-5
SK-MEL-2 = test system: SK-MEL-2
SK-MEL-5 = test system: SK-MEL-5
SK-OV-3 = test system: SK-OV-3
SN12C = test system: SN12C
SNB-75 = test system: SNB-75
UACC-257 = test system: UACC-257
NCI-H460 = test system: NCI-H460
RPMI-8226 = test system: RPMI-8226

Measured: GI50

Cc1noc(C)c1CCCOC1COc2ccccc2OCCOCCOc2ccccc2OC1
inactive: 786-0 > 100 µM | A498 > 100 µM | A549 > 100 µM | ACHN > 100 µM | DLD-1 > 100 µM | HT-29 > 100 µM | M14 > 100 µM | Malme-3M 80.4 µM | OVCAR-5 > 100 µM | SK-MEL-2 > 100 µM | SK-MEL-5 > 100 µM | SK-OV-3 > 100 µM | SN12C > 100 µM | SNB-75 65.8 µM | UACC-257 > 100 µM

CC(=O)OC1[C@H]2c3cc4c(cc3CN3CCC(=C[C@@H]1O)C23)OCO4 (stereo partly drawn)
inactive: 786-0 > 100 µM | A549 > 100 µM | ACHN 33.1 µM | DLD-1 > 100 µM | HT-29 > 100 µM | M14 44.5 µM | Malme-3M > 100 µM | NCI-H460 > 100 µM | RPMI-8226 > 100 µM | SK-OV-3 > 100 µM | SN12C > 100 µM | SNB-75 47.6 µM | UACC-257 46.9 µM

C[N+]1(C)C/C(=C\c2ccncc2)C(=O)/C(=C/c2ccncc2)C1
inactive: 786-0 > 100 µM | A498 > 100 µM | A549 > 100 µM | ACHN > 100 µM | DLD-1 > 100 µM | HT-29 > 100 µM | M14 > 100 µM | Malme-3M > 100 µM | NCI-H460 > 100 µM | OVCAR-5 > 100 µM | RPMI-8226 63.8 µM | SK-MEL-5 > 100 µM | SK-OV-3 > 100 µM | SN12C > 100 µM | SNB-75 > 100 µM | UACC-257 > 100 µM

Nc1c(-c2nc3ccccc3s2)[n+]([O-])c2ccccc2[n+]1[O-]
inactive: 786-0 32.1 µM | A498 33.2 µM | A549 36.4 µM | ACHN 24.6 µM | DLD-1 33 µM | HT-29 37 µM | M14 29.6 µM | Malme-3M 30.4 µM | NCI-H460 28.1 µM | OVCAR-5 > 100 µM | RPMI-8226 25.8 µM | SK-MEL-2 29.1 µM | SK-MEL-5 17 µM | SK-OV-3 37 µM | SNB-75 26.7 µM | UACC-257 30.8 µM

CCOC(=N)CC(=O)Nc1ccc(Cl)cc1
inactive: 786-0 > 100 µM | A498 > 100 µM | A549 > 100 µM | ACHN > 100 µM | DLD-1 > 100 µM | HT-29 > 100 µM | M14 > 100 µM | Malme-3M > 100 µM | NCI-H460 > 100 µM | OVCAR-5 > 100 µM | SK-MEL-2 > 100 µM | SK-MEL-5 > 100 µM | SK-OV-3 > 100 µM | SN12C > 100 µM | SNB-75 > 100 µM | UACC-257 > 100 µM

CCC1CCc2c(OC)ccc(OCC(=O)O)c2C1=O (stereo not drawn)
inactive: 786-0 > 100 µM | A549 > 100 µM | ACHN > 100 µM | DLD-1 > 100 µM | M14 > 100 µM | Malme-3M > 100 µM | OVCAR-5 > 100 µM | RPMI-8226 > 100 µM | SK-MEL-2 > 100 µM | SK-MEL-5 > 100 µM | SK-OV-3 > 100 µM | SN12C > 100 µM | SNB-75 > 100 µM | UACC-257 > 100 µM

CC(=O)Nc1ccc(/C=c2\sc3nnc(-c4cccnc4)n3c2=O)cc1
inactive: 786-0 16.6 µM | A498 75.2 µM | A549 42.1 µM | ACHN 14 µM | DLD-1 17.3 µM | HT-29 18.5 µM | M14 18.7 µM | Malme-3M 19.1 µM | NCI-H460 16.3 µM | OVCAR-5 27.5 µM | SK-MEL-2 20.9 µM | SK-MEL-5 17.4 µM | SK-OV-3 24 µM | SN12C 14.4 µM | SNB-75 22.2 µM | UACC-257 21.8 µM

Cc1cc2cc(Cl)ccc2nc1C(=O)c1ccccc1
inactive: 786-0 > 100 µM | A549 > 100 µM | ACHN > 100 µM | DLD-1 > 100 µM | M14 > 100 µM | Malme-3M > 100 µM | OVCAR-5 > 100 µM | RPMI-8226 > 100 µM | SK-MEL-2 > 100 µM | SK-MEL-5 > 100 µM | SN12C > 100 µM | SNB-75 21.3 µM | UACC-257 32.4 µM

CCOC(=O)CC1=N/C(=N/c2cc(Cl)ccc2Cl)SC1
inactive: 786-0 > 100 µM | A498 > 100 µM | A549 > 100 µM | ACHN > 100 µM | DLD-1 91.8 µM | HT-29 54.1 µM | M14 > 100 µM | Malme-3M > 100 µM | NCI-H460 > 100 µM | OVCAR-5 > 100 µM | SK-MEL-2 > 100 µM | SK-MEL-5 > 100 µM | SK-OV-3 > 100 µM | SN12C > 100 µM | SNB-75 78 µM | UACC-257 > 100 µM

COc1ccc(C2=Nc3ccccc3NC(=O)C2)cc1
inactive: 786-0 33.3 µM | A498 45.2 µM | A549 77.6 µM | ACHN 41.2 µM | DLD-1 62.8 µM | HT-29 > 100 µM | M14 > 100 µM | Malme-3M 92 µM | NCI-H460 31.1 µM | OVCAR-5 > 100 µM | SK-MEL-2 51.5 µM | SK-MEL-5 > 100 µM | SK-OV-3 21.5 µM | SN12C 43.3 µM | SNB-75 23.8 µM | UACC-257 > 100 µM

COc1cc(C2C(Cl)C(=O)N2NC(=O)Cc2ccccc2)cc(Br)c1O (stereo not drawn)
inactive: 786-0 > 100 µM | A549 > 100 µM | ACHN > 100 µM | DLD-1 86.9 µM | HT-29 > 100 µM | M14 > 100 µM | Malme-3M > 100 µM | NCI-H460 80.9 µM | OVCAR-5 > 100 µM | RPMI-8226 42.5 µM | SK-MEL-2 > 100 µM | SK-MEL-5 69.8 µM | SK-OV-3 > 100 µM | SN12C > 100 µM | SNB-75 64.9 µM | UACC-257 > 100 µM

COC(=O)c1onc(-c2c(OC)cc(OC)cc2OC)c1C(=O)OC
inactive: 786-0 > 100 µM | A549 > 100 µM | ACHN > 100 µM | DLD-1 > 100 µM | HT-29 > 100 µM | M14 > 100 µM | Malme-3M > 100 µM | NCI-H460 > 100 µM | OVCAR-5 > 100 µM | RPMI-8226 > 100 µM | SK-MEL-2 > 100 µM | SK-MEL-5 > 100 µM | SK-OV-3 > 100 µM | SNB-75 > 100 µM | UACC-257 > 100 µM

C/C(=N/NC(=O)c1ccccc1O)c1ccc(/C(C)=N\NC(=O)c2ccccc2O)c2nc3cc(C)c(C)cc3nc12
inactive: 786-0 > 100 µM | A498 > 100 µM | A549 > 100 µM | ACHN > 100 µM | DLD-1 > 100 µM | HT-29 > 100 µM | M14 > 100 µM | Malme-3M > 100 µM | NCI-H460 > 100 µM | OVCAR-5 > 100 µM | SK-MEL-2 > 100 µM | SK-MEL-5 > 100 µM | SK-OV-3 > 100 µM | SN12C > 100 µM | SNB-75 38.7 µM | UACC-257 > 100 µM
